# Source: ChEMBL document CHEMBL5120862, “Novel non-covalent LSD1 inhibitors endowed with anticancer effects in leukemia and solid tumor cellular models” (Eur J Med Chem, 2022)
# Activity calls are given as the source filed them. The calls are words filed in the database; no cut-off is given here.
# How the values were obtained:
# [1] = biological target: T1, N-lysine methyltransferase KMT5A (Homo sapiens, UniProt Q9NQR1); assay: Inhibition of SETD8 (unknown origin) using [3H]SAM and HeLa nucleosomes as substrates incubated for 1 hr
# T1 sequence (Q9NQR1 whole entry): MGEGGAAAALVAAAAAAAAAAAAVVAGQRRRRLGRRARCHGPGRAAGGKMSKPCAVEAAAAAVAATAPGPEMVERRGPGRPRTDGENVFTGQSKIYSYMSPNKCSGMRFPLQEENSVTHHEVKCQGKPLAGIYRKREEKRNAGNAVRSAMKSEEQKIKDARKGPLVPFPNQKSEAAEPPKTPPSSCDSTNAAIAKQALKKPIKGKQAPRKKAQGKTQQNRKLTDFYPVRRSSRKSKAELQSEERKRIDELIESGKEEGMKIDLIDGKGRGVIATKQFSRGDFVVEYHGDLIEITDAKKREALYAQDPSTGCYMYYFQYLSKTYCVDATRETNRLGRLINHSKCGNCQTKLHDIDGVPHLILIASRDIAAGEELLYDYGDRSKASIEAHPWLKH
# [2] = biological target: T2, N-lysine methyltransferase KMT5A (Homo sapiens) (UniProt Q9NQR1); assay: Inhibition of SETD8 (unknown origin) using [3H]SAM and HeLa nucleosomes as substrates at 100 uM incubated for 1 hr relative to control
# T2 sequence (whole entry): T1 sequence (Q9NQR1 whole entry)
# RD [3] = assay: Antiproliferative activity against human RD cells assessed as reduction in live cells at 10 uM incubated for 72 hrs by calceinAM/propidium iodide staining based fluorescence microscopy; assay type: functional, cell-based
# SJRH30 [4] = assay: Antiproliferative activity against human Rh30 cells assessed as inhibition of cell growth incubated for 24 hrs; assay type: functional, cell-based; conditions: SJRH30, 24 h
# SJRH30 [5] = assay: Antiproliferative activity against human Rh30 cells assessed as inhibition of cell growth incubated for 72 hrs; assay type: functional, cell-based; conditions: SJRH30, 72 h
# RD [6] = assay: Antiproliferative activity against human RD cells assessed as inhibition of cell growth incubated for 72 hrs; assay type: functional, cell-based
# SJRH30 [7] = assay: Antiproliferative activity against human Rh30 cells assessed as reduction in live cells at 10 uM incubated for 24 hrs by calceinAM/propidium iodide staining based fluorescence microscopy; assay type: functional, cell-based
# SJRH30 [8] = assay: Antiproliferative activity against human Rh30 cells assessed as inhibition of cell growth incubated for 144 hrs; assay type: functional, cell-based; conditions: SJRH30, 144 h
# LSD1/CoREST complex [9] = biological target: T3, LSD1/CoREST complex (Homo sapiens, UniProt O60341); assay: Binding affinity to human LSD1/CoREST assessed as dissociation constant by competitive fluorescence polarization assay; assay type: protein-complex assay
# SJRH30 [10] = assay: Induction of apoptosis in human Rh30 cells assessed as increase in caspase 3/7 level at 10 uM incubated for 24 hrs; assay type: functional, cell-based
# LSD1/CoREST complex [11] = biological target: T3, LSD1/CoREST complex; assay: Inhibition of human LSD1/CoREST using histone H3 peptide as substrate by fluorescence polarization assay; assay type: protein-complex assay
# RD [12] = assay: Antiproliferative activity against human RD cells assessed as inhibition of cell growth incubated for 144 hrs; assay type: functional, cell-based
# RD [13] = assay: Antiproliferative activity against human RD cells assessed as inhibition of cell growth incubated for 24 hrs; assay type: functional, cell-based
SMILES,IC50 [1],inhibition [2],Activity (RD [3]),IC50 (SJRH30 [4]),IC50 (SJRH30 [5]),IC50 (RD [6]),Activity (SJRH30 [7]),IC50 (SJRH30 [8]),Kd (LSD1/CoREST complex [9]),Activity (SJRH30 [10]),Ki (LSD1/CoREST complex [11]),IC50 (RD [12]),IC50 (RD [13])
Cc1ccc(NC2=CC(=O)c3sc(C)nc3C2=O)cc1,0.37 µM,91.6%,,,,,,,,,,,
Cc1ccc(-c2ncc(OC[C@@H]3CCNC3)cc2-c2ccc(C#N)cc2)cc1,,,Active,9.93 µM,10.7 µM,11.4 µM,Active,10.3 µM,0.014 µM,Active,0.035 µM,10.2 µM,12.3 µM
